Measurements taken from patent US20060052459A1, “Antifungal medicaments comprising arylamidine derivatives” (priority 2002, published 2006).

What was measured:
[1] = test system: Aspergillus fumigatus strain IP 864.64; assay: In vitro antifungal growth inhibition on microtitre plates (optical density 590 nm), compounds alone or as mixtures (Wadley method); assay type: cell-based; details: second study
Method: (§1) The following fungi were used for this study: Candida albicans strains IP 48.72 (ATCC 10231) and Aspergillus fumigatus strain IP 864.64 obtained from the Collection Nationale de Cultures de Microorganismes (CNCM) of the Institut Pasteur. The strains are cultured on Yeast Extract-Peptone-Dextrose (YEPD) agar medium comprising 0.5% yeast extract, 0.5% bactopeptone, 2% glucose and 2% agar at 30° C. and in the dark.
(§2) All these compounds were prepared in a DMSO solution at a final concentration of 100 mg/ml. The stock solutions are stored at −20° C. up to the time of use.
(§3) The trials are carried out in RPMI 1640 medium with no sodium bicarbonate, but with L-glutamine buffered with 0.165 mol per litre of 3-[N-morpholino]propanesulphonic acid (MOPS), enriched (<>) or otherwise (<>) with 2% glucose. The pH of this medium is adjusted to 7.0. The medium is sterilized by filtration (0.22 μm) and stored at 4° C. up to the time of use.
(§4) All the antifungal tests are carried out on microtitre plates. The initial suspensions of spores are prepared in a sterile solution containing 0.85% NaCl, supplemented with Tween 80 at 0.01%. These initial suspensions are then diluted in the culture medium (RPMI 1640 enriched or otherwise with 2% glucose) to a final concentration of 10^4 spores per ml. The measurements of viability of each inoculum are verified by subcultures of a volume of 300 μl on YEPD agar medium.
(§5) The antifungal compounds are tested in a range of concentrations ranging from 0.026 to 100 μg of active ingredient/ml. These antifungal compounds are then diluted in RPMI 1640 medium enriched or otherwise with 2% glucose. A final DMSO concentration of 0.2% is used throughout the measurements. Each trial is carried out on a series of dilutions of antifungal compounds, in duplicate. The antifungal dilutions (0.1 ml) and the fungal inoculum (0.1 ml) are added to each of the wells of the microtitre plate. The plates are then read with a spectrophotometer (ELX 800UV Bio-Tek Instruments, Inc) at a wavelength of 590 nm. The plates are read immediately after (t=0) and after 48 hours' incubation at 30° C. and in the dark. The optical density values obtained are correlated with fungal growth between the times t=0 and t=48 hours. The optical density values are used to calculate the percentage inhibition of growth for each concentration of antifungals by comparison with the control. The values are then used to plot a dose-response curve and the EC50 value is determined for each fungus and each compound with the aid of the Grafit 5.0® software (Erithacus software Ltd).
(§6) The method which was used to measure the type of interaction existing between the antifungal compounds in the form of mixtures is the Wadley method.
(§7) In the Wadley approach, the dose-response curve for each of the compounds A and B, and for the mixture AB, is constructed. The EC50 is calculated for each compound taken individually and for the mixture. If a and b are the absolute quantities of the compounds A and B in the mixture (a=1, b=1, a+b=2 under our conditions), the expected effective concentration (EC50exp) may be calculated in the following manner: EC50exp=(a+b)/[a/EC50A)+b/(EC50B)
(§8) The Wadley approach may be used to estimate the type of interaction existing between the fungal compounds, regardless of their concentration. Its reliability is not dependent on the percentage inhibition. The type of interaction between two compounds is given by the level of interaction (LI) which corresponds to the ratio between the expected effective concentration (EC50exp) and that observed (EC50obs) of the mixture. The nature of the interaction obtained by the Wadley formula is presented in Table 1 (see U. Gisi, Synergistic interaction in fungicide mixtures, 1996. Phytopathology 86, 1273-1279) below.
(§9) The experimental conditions are the same as previously described.

[2] = test system: Candida albicans strains IP 48.72 (ATCC 10231); assay: as above; assay type: cell-based; details: second study
Method: as §1, §2, §3, §4, §5, §6, §7, §8, §9

Q: For CCN(C)C=Nc1cc(C)c(Oc2ccc(C#N)c(C(F)(F)F)c2)cc1C [Compound I.2, N-ethyl-N-methyl-N′-[4-(4-cyano-3-trifluoromethylphenoxy)-2,5-dimethylphenyl]imidoformamide], which EC50 ([1]; Aspergillus fumigatus, IP864.64, 48 h, strain IP 864.64, RPMI 1640 medium enriched with 2% glucose, 48 hours at 30° C., read-out: EC50) is on record?
A: Its EC50 is 0.088 µg/mL.

Q: What about the “efficacy in vitro compared with compounds I.1 and II.2” value ([1]; enriched medium) of the same compound?
A: The value was “twice higher”.

Q: What about the EC50 ([2]; Candida albicans, ATCC10231, 48 h, strain IP 48.72, RPMI 1640 medium enriched with 2% glucose, 48 hours at 30° C., read-out: EC50) of the same compound?
A: The EC50 was 0.205 µg/mL.

Q: What about the “efficacy in vitro compared with compounds I.1 and II.1” value ([2]; enriched medium) of the same compound?
A: The value was “better efficacy”.
